Test results from patent US10307389B2, “Succinate prodrugs for use in the treatment of lactic acidosis or drug-induced side-effects due to Complex I-related impairment of mitochondrial oxidative phosphorylation” (NEUROVIVE PHARMACEUTICAL AB, priority 2014, dated 2019).

Assays:
[1] = test system: permeabilized human peripheral blood mononuclear cells (PBMCs); assay: High-resolution respirometry of permeabilized human PBMCs; details: PBMC, read-out: IC50 for inhibition of OXPHOSCI capacity
Procedure: Real-time respirometric measurements were performed using high-resolution oxygraphs (Oxygraph-2k, Oroboros Instruments, Innsbruck, Austria). The experimental conditions during the measurements were the following: 37° C., 2 mL active chamber volume and 750 rpm stirrer speed. […] For data recording, DatLab software version 4 and 5 were used (Oroboros Instruments, Innsbruck, Austria). Settings, daily calibration and instrumental background corrections were conducted according to the manufacturer's instructions. […] All measurements were performed at a platelet concentration of 200×10^6 cells per mL or a PBMC concentration of 5×10^6 cells per mL. […] Maximal uncoupled respiratory electron transport system capacity supported by convergent input through complex I and […] ) was evaluated by subsequent titration with the protonophore carbonylcyanide p-(trifluoromethoxy) phenylhydrazone (FCCP). […] Complex IV activity was calculated by subtracting the sodium azide value from the TMPD value. With exception of complex IV activity, all respiratory states were measured at steady-state and corrected for ROX. Complex IV activity was measured after ROX determination and not at steady-state.

[2] = case report; cited from earlier work
intact human platelets = assay: Lactate production and pH of intact human platelets; assay type: cell-based; details: 8 h; metformin 1 and 10 mM, phenformin 0.5 mM, rotenone 2 μM
Procedure: Lactate levels are determined every 30 min using the Lactate Pro™ 2 blood lactate test meter (Arkray, Alere A B, Lidingö, Sweden) or similar types of measurements. Incubation is performed at 37° C. pH is measured at start, after 4 and after 8 h (or more frequently) of incubation using a Standard pH Meter, e.g. PHM210 (Radiometer, Copenhagen, Denmark). Drug candidates are added to the assay from start or following 30-60 min at concentrations within the range 10 μM-5 mM. […] In order to evaluate the specificity of the drug candidate, it is also tested in combination with a down-stream inhibitor of respiration such as the complex III inhibitor Antimycin at 1 μg/mL, which should abolish the effect of the drug candidate and restore the production of lactate.
Incubation was performed at 37° C. at a stirrer speed of 750 rpm, and pH was measured at start, after 4 and after 8 h of incubation (n=4) using a PHM210 Standard pH Meter (Radiometer, Copenhagen, Denmark).

[3] = test system: permeabilized human platelets; assay: cells
Procedure: Lactate production of intact human platelets was determined in PBS containing 10 mM glucose.
Subsequently the FADH2-linked substrate succinate (10 mM) was given to determine convergent complex I- and II-dependent OXPHOS capacity (OXPHOSCI+II). […] Finally, the artificial complex IV substrate N,N,N′,N′-tetramethyl-p-phenylenediamine dihydrochloride (TMPD, 0.5 mM) was added and the complex IV inhibitor sodium azide (10 mM) was given to measure complex IV activity and chemical background, respectively.

[4] = patients; cited from earlier work

Row | SMILES | IC50 [1] [µM] | serum level in involuntary intoxication, prior to hemodialysis [2] | lactate production compared to control (intact human platelets) | IC50 ([3]; Homo sapiens, Platelet, 10 min, read-out: IC50 for inhibition of OXPHOSCI capacity) [µM] | ETSCII capacity and complex IV activity ([3]; permeabilized platelets, compared to controls) | potency of OXPHOSCI inhibition relative to metformin ([3]; permeabilized platelets, phenformin vs metformin) [fold] | incidence of lactic acidosis [4]
1 | CN(C)C(=N)N=C(N)N [Metformin] | 450 | over 2 mM |  |  |  |  | 
2 | [H]/N=C(/N)N/C(=N/[H])NCCc1ccccc1 [Phenformin] |  |  | significantly more lactate | 58 | not ETSCII or respiration specific to complex IV | 20 | 4 cases per 10000 treatment-years
